# Where a name gives a salt, the structure may show the parent alone. Read-outs that look alike come from different tables or passages of the source.
# Experiments:
# [1] = tested on: Candida albicans ATCC 11651; experiment: In vitro antifungal MIC, microtiter broth dilution; details: for MIC values, C. albicans: 30°, 24 hours; for MIC: Candida albicans, ATCC11651, 24 h
# Experimental: (§2) In vitro activity (Table 5) is expressed in terms of the minimal inhibitory concentration (MIC) of the test compound which inhibits the growth of yeasts and fungi.
# (§3) The target organisms, Candida albicans ATCC 11651 and Aspergillus fumigatus ATCC 28214 are standardized, [V. Bezjak, J. Clinical Micro., 21 509-512 (1984)], to a concentration of 10^7 organisms/ml and maintained at -70° until use. Test compounds are solubilized in dimethyl sulfoxide (DMSO) and diluted in Eagle's Minimum Essential Medium (EMEM) broth to achieve a final concentration of 200 μg/ml. Stock solutions of standard antifungal agents are stored at -70° and diluted in EMEM as required.
# (§4) The in vitro assay utilizes a microtiter broth dilution technique [L. Polonelli and G. Morace, Mycopathologia, 86, 21-28 (1984)] and C. […] The appropriate wells are inoculated with the required organism (C. albicans at 1×10^4 organisms/ml and A. fumigatus at 5×10^5 organisms/ml) and the assay incubated at 30° for 24 hours.
# [2] = tested on: Aspergillus fumigatus ATCC 28214; experiment: In vitro antifungal MIC, microtiter broth dilution; details: for MIC values, A. fumigatus: 30°, 24 hours; for MIC: Aspergillus fumigatus, ATCC28214, 24 h
# Experimental: as §2, §3, §4
# [3] = tested on: Candida albicans ATCC 11651; experiment: In vivo systemic Candida infection in mice, primary assay; design: species or system Candida albicans; CF-1 female mice; details: for responders at 150 mg/kg / responders at 1 mg/kg/day: Candida albicans, read-out: % Survival
# Excerpt: The […] activity of test compounds is based on the percent (%) survival of infected animals receiving test or standard agent compared to that in an infected untreated group (Table 6). The in vivo assays are chronic systemic infections lethal to mice within 7 days post infection, [J. Barnes, et al. Lab Investigation, 49 460-467 (1963), and T. Rogers and E. Balish, Infection and Immunity, 14 33-38 (1976)].
# Candida albicans ATCC 11651, from a frozen stock culture (10^9 organisms/ml) maintained at -70°, is diluted in saline to 1×10^7 organisms/ml and 0.2 ml inoculated intravenously (caudal vein) into 20.0 gm CF-1 female mice (Charles River).
# Test compounds are routinely solubilized in 0.25% (w/v) methylcellulose (Methocel®) but for those compounds difficult to solubilize 10% (w/v) Emulophor® (EL620 GAF Corp.) is used. The standard antifungal agents, amphotericin B (Fungizone®) in water and ketoconazole (Nizoral®) in Methocel®, are administered at 1.0 mg/kg/day and 150 mg/kg/day, respectively.
# In a primary assay, mice (10 per group) are infected with C. albicans, and receive test compounds at 50 or 150 mg/kg/day via the subcutaneous route. Animals are dosed with the test compound at 1 and 6 hour post-infection and then once daily for the next three days. Survival of mice in each group is recorded for 21 days.
# Compounds which protect ≥70% of the infected animals for 14 days at a dose 150 mg/kg/day or less are viewed as active.
# [4] = tested on: Cercosporidium personatum; experiment: Example B Peanut Late Leafspot; type: in vivo; details: Nothopassalora personata, read-out: disease control rating, Ex. B
# Experimental: (§1) The test compounds were dissolved in acetone in an amount equal to 6% of the final volume and then suspended at a concentration of 100 or 20 ppm in purified water containing 250 ppm of the surfactant TREM 014 (polyhydric alcohol esters). This suspension was sprayed to the point of run-off on peanut seedlings.
# Botrytis cinerea = experiment: Example C bean grey mold; type: in vivo; details: Botrytis cinerea, 24 h, read-out: disease control rating, Ex. C
# Experimental: as §1, with “broad bean” for “peanut”
# Pyricularia oryzae = experiment: whole plant or invertebrate; type: in vivo; details: Pyricularia oryzae, 120 h, read-out: disease control rating, Ex. E, 100 PPM
# Rhizoctonia solani = experiment: Example F rice sheath blight; type: in vivo; details: Rhizoctonia solani, 144 h, read-out: disease control rating, Ex. F
# Experimental: as §1, with “rice” for “peanut”
# Puccinia recondita = experiment: Example G wheat leaf rust; type: in vivo; details: read-out: disease control rating, Ex. G
# Phytophthora infestans = experiment: whole plant or invertebrate; type: in vivo; details: Phytophthora infestans, in Solanum lycopersicum, read-out: disease control rating, Ex. H, 100 PPM
# Plasmorpara viticola = experiment: Example I grape downy mildew; type: in vivo; details: read-out: disease control rating, Ex. I
# Experimental: as §1, with “grape” for “peanut”
# Venturia inaequalis = experiment: Example A apple scab; type: in vivo; details: 20 PPM, read-out: disease control rating, Ex. A
# Experimental: as §1, with “apple seedings.” for “peanut seedlings.”
# [5] = tested on: Erysiphe graminis f. sp. tritici; experiment: Example D wheat powdery mildew; type: in vivo; details: Blumeria graminis, 144 h; 20 PPM; read-out: disease control rating, Ex. D
# Experimental: as §1, with “wheat” for “peanut”
# [6] = ATCC11651, 168 h, 150 mg/kg per day, day 7
# [7] = ATCC11651, 336 h, 150 mg/kg per day, day 14
# [8] = ATCC11651, 504 h, 150 mg/kg per day, day 21
# [9] = read-out: MIC values, C. albicans, 30°, 24 hours
# [10] = read-out: MIC values, A. fumigatus, 30°, 24 hours
# [11] = read-out: MIC values, C. albicans
# [12] = read-out: MIC values, A. fumigatus
structure (smiles),measurement,setting,value
"C=C(c1ccc(F)cc1)C(O)(Cn1cncn1)c1ccc(F)cc1 (single isomer, unassigned) [1277 HCl salt]","MIC values, C. albicans",[1],0.03 µg/mL
same,"MIC values, A. fumigatus",[2],3.2 µg/mL
"OC(Cn1cncn1)(c1ccc(F)cc1)C1(c2ccc(F)cc2)CO1 (single isomer, unassigned) [Example 1487, 2,3-bis(4-fluorophenyl)-1-(1H-1,2,4-triazol-1-yl)-3,4-epoxy-2-butanol]",responders at 150 mg/kg,[3]; [6],100%
same,responders at 150 mg/kg,[3]; [7],100%
same,responders at 150 mg/kg,[3]; [8],70%
same,MIC,[1]; [9],0.4 µg/mL
same,MIC,[2]; [10],6.3 µg/mL
C=C(c1ccc(F)cc1)C(O)(Cn1cncn1)c1ccc(F)cc1 (stereo not drawn) [1 HCl salt],"MIC values, C. albicans",[1],0.05 µg/mL
same,"MIC values, A. fumigatus",[2],12.5 µg/mL
"Nc1nc(=O)[nH]cc1F [5-Fluorocytosine, reference compound]",MIC,[1]; [9],0.14 ± 0.1 µg/mL
same,MIC,[2]; [10],5.7 ± 4 µg/mL
C=C(c1ccc(Cl)cc1)C(O)(Cn1cncn1)c1ccc(Cl)cc1Cl (stereo not drawn) [26 HCl salt],"MIC values, C. albicans",[1],0.03 µg/mL
same,"MIC values, A. fumigatus",[2],0.4 µg/mL
C=C(c1ccccc1Cl)C(O)(Cn1cncn1)c1ccc(Cl)cc1 (stereo not drawn) [34 HCl salt],"MIC values, C. albicans",[1],0.03 µg/mL
same,"MIC values, A. fumigatus",[2],1.6 µg/mL
C=C(c1ccccc1Cl)C(O)(Cn1cncn1)c1ccc(Cl)cc1 (stereo not drawn) [34 salt],% Survival,"[3]; 150 mg/kg per day, day 7",100%
same,% Survival,"[3]; 150 mg/kg per day, day 14",100%
same,% Survival,"[3]; 150 mg/kg per day, day 21",100%
C=C(c1ccccc1Cl)C(O)(Cn1cncn1)c1ccc(F)cc1F (stereo not drawn) [35 HCl salt],"MIC values, C. albicans",[1],0.03 µg/mL
same,"MIC values, A. fumigatus",[2],≤ 0.2 µg/mL
C=C(c1ccccc1Cl)C(O)(Cn1cncn1)c1ccc(F)cc1F (stereo not drawn) [35 salt],% Survival,"[3]; 150 mg/kg per day, day 7",100%
same,% Survival,"[3]; 150 mg/kg per day, day 14",100%
same,% Survival,"[3]; 150 mg/kg per day, day 21",70%
"C[C@@H]1[C@H](O)[C@@H](C)/C=C/C=C/C=C/C=C/C=C/C=C/C=C/[C@H](O[C@@H]2O[C@H](C)[C@@H](O)[C@H](N)[C@@H]2O)C[C@@H]2O[C@](O)(C[C@@H](O)C[C@@H](O)[C@H](O)CC[C@@H](O)C[C@@H](O)CC(=O)O[C@H]1C)C[C@H](O)[C@H]2C(=O)O [Amphotericin B, reference compound]",responders at 1 mg/kg/day,"[3]; ATCC11651, 168 h",100%
same,responders at 1 mg/kg/day,"[3]; ATCC11651, 336 h",100%
same,responders at 1 mg/kg/day,"[3]; ATCC11651, 504 h",100%
same,MIC,[1]; [11],0.33 ± 0.2 µg/mL
same,MIC,[2]; [12],1.4 ± 0.5 µg/mL
C=C(c1ccc(Cl)cc1)C(O)(Cn1cncn1)c1ccc(Cl)cc1Cl (stereo not drawn) [Example 26 HCl salt],% Survival,"[3]; 150 mg/kg per day, day 7",100%
same,% Survival,"[3]; 150 mg/kg per day, day 14, listed as 26 salt",90%
same,% Survival,"[3]; 150 mg/kg per day, day 21, listed as 26 salt",80%
C=C(c1ccccc1)C(O)(Cn1cncn1)C(F)(F)C(F)(F)C(F)(F)C(F)(F)F (stereo not drawn) [Example 55],responders at 150 mg/kg,"[3]; ATCC11651, 168 h",100%
same,responders at 150 mg/kg,"[3]; ATCC11651, 336 h",70%
same,responders at 150 mg/kg,"[3]; ATCC11651, 504 h",50%
C=C(c1ccc(Br)cc1)C(O)(Cn1cncn1)c1ccc(F)cc1 (stereo not drawn) [Example 85],responders at 150 mg/kg,[3]; [6],100%
same,responders at 150 mg/kg,[3]; [7],80%
same,responders at 150 mg/kg,[3]; [8],70%
same,MIC,[1]; [9],≤ 0.4 µg/mL
same,MIC,[2]; [10],12.5 µg/mL
C=C(c1ccc(C(C)(C)C)cc1)C(O)(Cn1cncn1)c1ccc(F)cc1 (stereo not drawn) [Example 114],responders at 150 mg/kg,[3]; [6],70%
same,responders at 150 mg/kg,[3]; [7],10%
same,responders at 150 mg/kg,[3]; [8],10%
same,MIC,[1]; [9],0.4 µg/mL
same,MIC,[2]; [10],50 µg/mL
C=C(c1ccc(C(C)(C)C)cc1)C(O)(Cn1cncn1)c1ccc(Cl)cc1 (stereo not drawn) [Example 117],responders at 150 mg/kg,[3]; [6],60%
same,responders at 150 mg/kg,[3]; [7],0%
same,responders at 150 mg/kg,[3]; [8],0%
same,MIC,[1]; [9],0.4 µg/mL
same,MIC,[2]; [10],100 µg/mL
CC=C(c1ccccc1)C(O)(Cn1cncn1)c1ccc(F)cc1 (stereo not drawn) [Example 286],responders at 150 mg/kg,[3]; [6],100%
same,responders at 150 mg/kg,[3]; [7],50%
same,responders at 150 mg/kg,[3]; [8],20%
same,MIC,[1]; [9],0.4 µg/mL
same,MIC,[2]; [10],25 µg/mL
C=C(CO)C(O)(Cn1cncn1)c1ccccc1 (stereo not drawn) [Example 448],pest or weed control at 100 ppm,[4]; 100 PPM,0%
same,pest or weed control at 100 ppm,Botrytis cinerea,54%
same,pest or weed control at 100 ppm,Pyricularia oryzae,0%
same,pest or weed control at 100 ppm,Rhizoctonia solani,42%
same,pest or weed control at 100 ppm,Puccinia recondita; 100 PPM,16%
same,pest or weed control at 100 ppm,Phytophthora infestans,0%
same,pest or weed control at 100 ppm,Plasmorpara viticola,0%
C=C(c1ccc(Cl)cc1)C(O)(Cn1cncn1)c1cccc(C(F)(F)F)c1 (stereo not drawn) [Example 685],responders at 150 mg/kg,[3]; [6],30%
same,responders at 150 mg/kg,[3]; [7],10%
same,responders at 150 mg/kg,[3]; [8],0%
same,pest or weed control at 20 ppm,Venturia inaequalis,57%
same,pest or weed control at 20 ppm,[4]; 20 PPM,66%
same,pest or weed control at 20 ppm,Botrytis cinerea; 20 PPM,28%
same,pest or weed control at 100 ppm,Botrytis cinerea,0%
same,pest or weed control at 20 ppm,[5],67%
same,pest or weed control at 100 ppm,Pyricularia oryzae,0%
same,pest or weed control at 20 ppm,Rhizoctonia solani; 20 PPM,15%
same,pest or weed control at 100 ppm,Rhizoctonia solani,29%
same,pest or weed control at 20 ppm,Puccinia recondita; 20 PPM,100%
same,MIC,[1]; [9],0.8 µg/mL
same,MIC,[2]; [10],100 µg/mL
C=C(c1ccc(F)cc1)C(O)(Cn1cncn1)c1ccncc1 (stereo not drawn) [Example 699],MIC,[1]; [9],50 µg/mL
same,MIC,[2]; [10],100 µg/mL
C=C(c1cccc(C(F)(F)F)c1)C(O)(Cn1cncn1)c1ccc(F)cc1 (stereo not drawn) [Example 725],responders at 150 mg/kg,[3]; [6],90%
same,responders at 150 mg/kg,[3]; [7],90%
same,responders at 150 mg/kg,[3]; [8],40%
C=C(c1ccc(F)cc1)C(O)(c1ccc(F)cc1)C(F)n1cncn1 (stereo not drawn) [Example 1258],MIC,[1]; [9],1.6 µg/mL
same,MIC,[2]; [10],> 100 µg/mL
C=C(c1ccc(F)cc1)C(O)(c1ccc(F)cc1)C(F)(F)n1cncn1 (stereo not drawn) [Example 1260],MIC,[1]; [9],0.8 µg/mL
same,MIC,[2]; [10],> 100 µg/mL
"CC(=O)N1CCN(c2ccc(OCC3COC(Cn4ccnc4)(c4ccc(Cl)cc4Cl)O3)cc2)CC1 (stereo not drawn) [Ketoconazole, reference compound]",responders at 150 mg/kg,[3]; [6],100%
same,responders at 150 mg/kg,[3]; [7],80%
same,responders at 150 mg/kg,[3]; [8],50%
same,MIC,[1]; [9],≤ 0.1 µg/mL
same,MIC,[2]; [10],11 ± 5 µg/mL
"Clc1ccc(COC(Cn2ccnc2)c2ccc(Cl)cc2Cl)c(Cl)c1 (stereo not drawn) [Miconazole, reference compound]",MIC,[1]; [11],≤ 0.1 µg/mL
same,MIC,[2]; [12],1.3 µg/mL
"C[C@@H]1[C@H](O)[C@@H](C)/C=C/C=C/CC/C=C/C=C/C=C/C=C/C(O[C@H]2O[C@H](C)[C@@H](O)[C@H](N)[C@@H]2O)CC2O[C@](O)(CC(O)C(O)CCC(O)CC(O)CC(O)CC(=O)O[C@H]1C)CC(O)C2C(=O)O (stereo partly drawn) [Nystatin, reference compound]","MIC values, C. albicans",[1],1.3 ± 0 µg/mL
same,"MIC values, A. fumigatus",[2],3.0 ± 1.0 µg/mL
